We go through one compound from patent US20070148262A1 (priority 2005, published 2007).

Test [1] concerns avian influenza viruses (AIV) (field isolate No. 02-8, virus strain K228). Format: cell-based.
In the next test the test system is Salmonella cholerasuis. As to the kind of experiment: comparison of antibacterial effects: Green-zone A vs malic acid and grapefruit seed extract. The format is cell-based. On the set-up: key: NBD: No Bacteria Detected; BD: Bacteria Detected. Particulars: 5% organic matter dilution (yeast extract, hard water). The method, then:
The antibacterial effect of Green-zone A prepared in Example 1 was compared to the effect of each of malic acid and grapefruit seed extract alone.
A bacterial strain used in the test of antibacterial activity was Salmonella cholerasuis. The Salmonella strain was cultured in nutrient medium at 37° C. for 24 hours and used at a concentration of 5×10^8 cells/ml of the nutrient medium.
Green-zone A prepared in Example 1 was undiluted and diluted 2-fold and 5-fold with hard water. Meanwhile, a composition of 50 g malic acid completely dissolved in 200 ml of purified water, and a composition of 6 g grapefruit seed extract completely dissolved in 200 ml of distilled water, were undiluted and diluted 2-fold and 5-fold.
4 ml of the prepared Salmonella strain was mixed with 96 ml of 5% organic matter dilution (4° C., 5% yeast extract, pH 7.0, diluted with hard water). 2.5 ml of the mixture solution was taken and allowed to react at 4° C. for 30 minutes.
After completion of the reaction, 1 ml of the bacterial dilution was added and mixed with 9 ml of neutralizing medium (containing 5% horse serum inactivated in nutrient medium) at 37° C. Then, the mixture was added into test tubes containing 0.1 ml of each of nutrient media, and was proliferated in an incubator at 37° C. for 48 hours.
After completion of the proliferation, the […] was re-inoculated into blood medium and measured for the bactericidal activity of each of the compositions (Table 15).

Regarding `O=C(O)CC(O)C(=O)O` (stereo not shown) [Malic acid, malic acid], the “disinfectant effects up to dilutions of” value in test [1] is “no disinfectant effects”. Further, the figures for the bactericidal activity result in the test with Salmonella cholerasuis (Original solution), in the test on Salmonella cholerasuis (dilution 1:2) and in the test on Salmonella cholerasuis (dilution 1:5) were “NBD”, “BD” and “BD”, respectively.
